In patent publication US12083097B2, “Dual TNFR1 antagonists and TNER2 agonists for use in renal diseases” (SERODUS AS, priority 2020, dated 2024):
Entries after “also recorded” stand apart in the source; their conditions may differ.

Tests used:
[1] = tested on: sTNFR2; experiment: Urine sTNFR2-to-creatinine in Px-UNx diabetic nephropathy rat model (ELISA); type: in vivo; settings: for urine concentration of sTNFR2 corrected for urine creatinine: Group 3, Px-UNx rats, 1 mg/kg
Experimental: (§1) In the examples below, the sTNFR1 and sTNFR2 were measured using the commercial ELISA kits mouse/rat TNFRI/TNFRII Quantikine ELISA kits from R&D Systems according to the manufacturers protocol. However, for the purpose of measuring the sTNFR1 and sTNFR2 in humans for determining the relevant population groups according the present invention, the method described in Krolewski A. S. Diabetes Care 2015; 38:954-962 and Krolewski A. S. et al. Kidney Int. 2017 June; 91(6): 1300-1311 should be used.
(§2) The pancreatectomy and uninephrectomy (see below) were conducted during a single surgical procedure (Secher T et al. Diabetes 2018 July; 67(Supplement 1)). Animals were operated in a randomized fashion during several consecutive surgical days. After an overnight full-fast with grids installed in the cages, the rats were pancreatectomized and uninephrectomized under isoflurane anesthesia. Pre-operative analgesia, antibiotics and fluid replacement were administered. Rats were not offered any food from one day before to one day after the surgery, From the second day after surgery they were fed ad libitum.
(§3) In short, the 90% pancreatectomy is performed by removing the complete portion of the tail, body and a part of the pancreatic head by gentle abrasion with dental applicator. The major blood vessels to the stomach, spleen and gut are left intact so no other organs are compromised.
(§4) Briefly, the right kidney is visited and the right ureter, kidney artery and kidney vein identified, and ligated with suture. Hereafter, the right kidney is removed.
(§5) The sham operation is conducted to mimic the Px-UNx surgical procedure as best as possible. In brief, anesthesia and analgesia as well as opening and closuring the abdominal cavity are conducted as described above. After the abdominal cavity is opened, the pancreas and right kidney will be exposed, but left untouched and intact.
Rats were placed individually in metabolic cages for 16 h from the afternoon to the next morning. […] Total urine volume was recorded, and urine stored at −80° C. […]
(§6) Urine samples were stored at −80° C. until analysis. sTNFR1 in rat urine was measured using commercial ELISA kits (R&D Systems mouse/rat TNFRI/TNFRII Quantikine ELISA kits) according to the manufacturer's instructions. Urine creatinine was measured using the CREP2 kit (Roche Diagnostics, Germany) on the Cobas™ C-501 autoanalyzer as per the manufacturer's instructions. Urinary albumin was measured using the Bethyl Laboratories rat albumin ELISA as per the manufacturer's instructions. The urinary albumin-to-creatinine ratio (UACR) was calculated. […]
Likewise, the urine concentrations of sTNFR2 corrected for urine concentration of creatinine (pg/mg) were measured at baseline and after 4 and 7 weeks in group 3.

[2] = tested on: sTNFR1; experiment: Urine sTNFR1-to-creatinine in Px-UNx diabetic nephropathy rat model (ELISA); type: in vivo; settings: for urine sTNFR1 corrected for creatinine, pooled data from Table 2: Treated Px-UNx rats (n = 33), doses 1, 3, 10 mg/kg pooled
Experimental: Three active doses of 1, 3 and 10 mg/kg of compound 1 were administered orally once daily to 90% pancreatectomized and uninephrectomized rats over 49 days. A control group received placebo, and another control group underwent surgery to mimic the 90% pancreatectomy (Px) and uninephrectomy (UNx) without affecting the function of the kidney or the pancreas (Sham model). The Sham group also received placebo. The conclusion from the rat study was that compound 1 reduced the level of sTNFR1 in the urine over the full treatment period (see FIG. 2). […] The daily doses in the rat model may be converted into equivalent doses in humans (Guidance for Industry: Estimating the Maximum Safe Starting Dose in Initial Clinical Trials for Therapeutics in Adult Healthy Volunteers, 2005). Thus, the 1 mg/kg daily dose corresponds to a human daily dose of 0.16 mg/kg or 11.2 mg for a 70-kg patient. Likewise, a 3 mg/kg daily dose corresponds to a human daily dose of 0.48 mg/kg or 33.6 mg for a 70-kg patient. Finally, a 10 mg/kg daily dose corresponds to a human daily dose of 1.6 mg/kg or 112.7 mg for a 70-kg patient.
as §1, §2, §3, §4, §5
Rats were placed individually in metabolic cages for 16 h from the afternoon to the next morning. Randomized subsets of the study groups were placed in the cages over several days (as there were fewer cages than rats). Rats were supplied with chow and water ad libitum. Cage enrichment (igloo, plastic stick to sit on) was included if possible. Total urine volume was recorded, and urine stored at −80° C. Large amounts were aliquoted in several 0.5 ml Eppendorph tubes prior to freezing.
as §6, with “instructions.” for “instructions. The urinary albumin-to-creatinine ratio (UACR) was calculated.”

[3] = tested on: patients with diabetic nephropathy; experiment: Clinical Phase 2a study, ACR in patients with diabetic nephropathy; type: in vivo, human; settings: for Average baseline ACR / Average ACR (4 weeks): doses 0.3 and 0.625 mg/kg daily pooled
Experimental: A clinical Phase 2a study with compound 1 was conducted in patients with diabetic nephropathy. The patients were divided into two different subgroups having either macroalbuminuria (ACR>300 mg/g) or microalbuminuria (ACR 30-300 mg/g), and each subgroup were treated with 0.3 mg of compound 1/kg daily or 0.625 mg of compound 1/kg daily for 4 weeks.

## O=C(O)CC/C=C\C[C@@H]1CO[C@H](c2ccccc2Cl)O[C@@H]1c1ccccc1O [compound 1, (Z)-6-((2S,4S,5R)-2-(2-chlorophenyl)-4-(2-hydroxyphenyl)-1,3-dioxan-cis-5-yl) hex-4-enoic acid]
[1]; 0 weeks (baseline)
  urine concentration of sTNFR2 corrected for urine creatinine: 4561 pg/mg
[1]; 4 weeks
  urine concentration of sTNFR2 corrected for urine creatinine: 3302 pg/mg
[1]; 7 weeks
  urine concentration of sTNFR2 corrected for urine creatinine: 3264 pg/mg
[1]; Px-UNx rats, 3 mg/kg, p.o., 4 and 7 weeks
  change in urine TNFR2-to-creatinine from baseline versus placebo (FIG. 3): decreasing levels of TNFR2 but much less compared to the placebo control group
[2]; Group 3, Px-UNx rats, 1 mg/kg orally once daily, 0 weeks (baseline)
  urine concentration of sTNFR1 corrected for urine creatinine: 243.38 pg/mg
[2]; Group 3, Px-UNx rats, 1 mg/kg orally once daily, 4 weeks
  urine concentration of sTNFR1 corrected for urine creatinine: 373.28 pg/mg
[2]; Group 3, Px-UNx rats, 1 mg/kg orally once daily, 7 weeks
  urine concentration of sTNFR1 corrected for urine creatinine: 345.46 pg/mg
[2]; Group 4, Px-UNx rats, 3 mg/kg orally once daily, 0 weeks (baseline)
  urine concentration of sTNFR1 corrected for urine creatinine: 236.29 pg/mg
[2]; Group 4, Px-UNx rats, 3 mg/kg orally once daily, 4 weeks
  urine concentration of sTNFR1 corrected for urine creatinine: 313.80 pg/mg
[2]; Group 4, Px-UNx rats, 3 mg/kg orally once daily, 7 weeks
  urine concentration of sTNFR1 corrected for urine creatinine: 369.65 pg/mg
[2]; Group 5, Px-UNx rats, 10 mg/kg orally once daily, 0 weeks (baseline)
  urine concentration of sTNFR1 corrected for urine creatinine: 220.27 pg/mg
[2]; Group 5, Px-UNx rats, 10 mg/kg orally once daily, 4 weeks
  urine concentration of sTNFR1 corrected for urine creatinine: 348.50 pg/mg
[2]; Group 5, Px-UNx rats, 10 mg/kg orally once daily, 7 weeks
  urine concentration of sTNFR1 corrected for urine creatinine: 375.03 pg/mg
[2]; Px-UNx rats, 1, 3, 10 mg/kg, 4 and 7 weeks, compared with Px-UNx placebo
  corrected urine sTNFR1 level versus placebo group: capable of decreasing the level of sTNFR1; also recorded: consistently below the values for the placebo group
[2]; Px-UNx rats, 1, 3 or 10 mg/kg
  difference in sTNFR1 effect between dosage levels: no statistically significant difference between dosage levels
[2]; Px-UNx rats, pooled doses, 7-week period
  change in urine sTNFR1 from baseline versus placebo (FIG. 2): significantly less than for the placebo control group
[2]; 0 weeks (baseline)
  urine sTNFR1 corrected for creatinine, pooled data from Table 2: 233.3 pg/mg
[2]; 4 weeks
  urine sTNFR1 corrected for creatinine, pooled data from Table 2: 345.2 pg/mg
[2]; 7 weeks
  urine sTNFR1 corrected for creatinine, pooled data from Table 2: 363.4 pg/mg
[3]; 0.3 vs 0.625 mg/kg daily, each subgroup, 4 weeks
  difference in ACR effect between the two doses: No statistic significant difference between the two doses
[3]; 4 weeks, doses pooled
  ACR reduction in macroalbuminuria versus microalbuminuria sub-group: statistic significant higher reduction in ACR
[3]; Macroalbuminuria (ACR>300 mg/g) patients, n = 11, baseline
  Average baseline ACR: 691 mg/g
[3]; Macroalbuminuria patients, n = 11, 4 weeks vs baseline, doses pooled
  ACR reduction (%): 26.2%
[3]; Macroalbuminuria patients, n = 11, after 4 weeks
  Average ACR (4 weeks): 510 mg/g
[3]; Microalbuminuria (ACR 30-300 mg/g) patients, n = 38, baseline
  Average baseline ACR: 91.8 mg/g
[3]; Microalbuminuria patients, n = 38, 4 weeks vs baseline, doses pooled
  ACR reduction (%): 20.9%
[3]; Microalbuminuria patients, n = 38, after 4 weeks
  Average ACR (4 weeks): 72.6 mg/g
[3]; both subgroups (micro- and macroalbuminuria), 4 weeks
  reduction in ACR from baseline: statistically significant reduction in ACR
